PMC8279857, “In Vitro and In Silico Evaluation for the Inhibitory Action of O. basilicum Methanol Extract on α-Glucosidase and α-Amylase” (Evidence-based Complementary and Alternative Medicine : eCAM, 2021)

Target: T1, intestinal α-glucosidase
T1 construct: called intestinal; pNPG assay after Kim et al; 5KZW (docking only) is not the assayed enzyme
Experiment: p-nitrophenol release from pNPG, absorbance […] nm
Assay type: biochemical
Settings: p-nitrophenyl α-D-glucopyranoside (250 μL of 20 mM), sodium phosphate pH 6.9, 37°C, 10 min preincubation

Structure (SMILES): O=C(O)/C=C/c1ccc(O)c(O)c1 [caffeic acid]
- IC50: 1050 ± 250 µM
